Measured values: ChEMBL document CHEMBL1201862, “PubChem BioAssay data set” (2004)
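Method: 48-hour compound exposure of cells in 96-well plates, five concentrations, linear interpolation of endpoints. GI50 = concentration required for 50% inhibition of growth.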 The source made the active and inactive calls. No stated cut-off is given here; in the data, active = GI50 up to about 1.1 µM and inactive = higher.

Tests used:
Test in all cases: DTP human tumour cell line panel, 48 h
[1] = tested on: SK-MEL-5
[2] = tested on: NCI-H460
[3] = tested on: SK-MEL-2
[4] = tested on: EKVX
[5] = tested on: NCI-H23
[6] = tested on: HOP-92
[7] = tested on: HCT-116
[8] = tested on: SN12C
[9] = tested on: BT-549
[10] = tested on: OVCAR-4
[11] = tested on: SR
[12] = tested on: NCI-H522
[13] = tested on: OVCAR-8
[14] = tested on: UO-31
[15] = tested on: SF-268
[16] = tested on: Malme-3M
[17] = tested on: A549
[18] = tested on: PC-3
[19] = tested on: MDA-MB-231

Structure (SMILES)	GI50 [1]	GI50 [2]	GI50 [3]	GI50 [4]	GI50 [5]	GI50 [6]	GI50 [7]	GI50 [8]	GI50 [9]	GI50 [10]	GI50 [11]	GI50 [12]	GI50 [13]	GI50 [14]	GI50 [15]	GI50 [16]	GI50 [17]	GI50 [18]	GI50 [19]
O=C1c2ccccc2C2=Nc3ccncc3CN12	> 100 µM (inactive)	> 100 µM (inactive)	> 100 µM (inactive)	25.9 µM (inactive)	> 100 µM (inactive)	> 100 µM (inactive)	> 100 µM (inactive)	> 100 µM (inactive)	> 100 µM (inactive)	> 100 µM (inactive)	> 100 µM (inactive)	> 100 µM (inactive)	> 100 µM (inactive)	> 100 µM (inactive)	> 100 µM (inactive)	> 100 µM (inactive)	> 100 µM (inactive)	> 100 µM (inactive)	–
NC(=O)c1ncn(C2OC(CO)C(O)C2O)c1O (configuration not stated)	–	53.7 µM (inactive)	> 100 µM (inactive)	> 100 µM (inactive)	–	46.8 µM (inactive)	72.6 µM (inactive)	> 100 µM (inactive)	–	> 100 µM (inactive)	69 µM (inactive)	–	> 100 µM (inactive)	61.9 µM (inactive)	> 100 µM (inactive)	> 100 µM (inactive)	> 100 µM (inactive)	–	–
CCN(CC)C(=S)N/N=C(\C)c1ccccc1O	10.7 µM (inactive)	4.84 µM (inactive)	19 µM (inactive)	36.4 µM (inactive)	25 µM (inactive)	–	–	20.9 µM (inactive)	–	> 100 µM (inactive)	8.13 µM (inactive)	8.57 µM (inactive)	19.5 µM (inactive)	14.3 µM (inactive)	17.9 µM (inactive)	26.4 µM (inactive)	11.4 µM (inactive)	–	–
Cn1cnc2[nH]c(=O)[nH]c(=S)c21	> 100 µM (inactive)	> 100 µM (inactive)	> 100 µM (inactive)	> 100 µM (inactive)	> 100 µM (inactive)	> 100 µM (inactive)	> 100 µM (inactive)	> 100 µM (inactive)	–	> 100 µM (inactive)	> 100 µM (inactive)	> 100 µM (inactive)	> 100 µM (inactive)	> 100 µM (inactive)	> 100 µM (inactive)	> 100 µM (inactive)	> 100 µM (inactive)	–	–
Nc1ccc(C(=O)N/C(=C\C=C\c2ccco2)c2nc3c4c(ccc3[nH]2)C(=O)c2ccccc2C4=O)cc1	38 µM (inactive)	–	26.5 µM (inactive)	28.1 µM (inactive)	41.5 µM (inactive)	37 µM (inactive)	24.8 µM (inactive)	29.4 µM (inactive)	–	52.4 µM (inactive)	–	15.8 µM (inactive)	32.2 µM (inactive)	2.34 µM (inactive)	10.2 µM (inactive)	85.9 µM (inactive)	21 µM (inactive)	–	–
CCCCCCCCCCCCOC(=N)N1CCOCC1	11 µM (inactive)	15 µM (inactive)	9.51 µM (inactive)	12.9 µM (inactive)	13.4 µM (inactive)	1.32 µM (inactive)	8.39 µM (inactive)	4.39 µM (inactive)	–	7.62 µM (inactive)	1.56 µM (inactive)	14.6 µM (inactive)	16.4 µM (inactive)	13.5 µM (inactive)	15 µM (inactive)	19 µM (inactive)	15.8 µM (inactive)	–	–
O=C1C(c2ccccc2)=C(c2ccccc2)C(c2ccc(Cc3ccc(C4=C(c5ccccc5)C(=O)C(c5ccccc5)=C4c4ccccc4)cc3)cc2)=C1c1ccccc1	> 100 µM (inactive)	> 100 µM (inactive)	> 100 µM (inactive)	> 100 µM (inactive)	> 100 µM (inactive)	> 100 µM (inactive)	> 100 µM (inactive)	–	–	> 100 µM (inactive)	> 100 µM (inactive)	> 100 µM (inactive)	> 100 µM (inactive)	> 100 µM (inactive)	> 100 µM (inactive)	74.1 µM (inactive)	> 100 µM (inactive)	–	–
COC(=O)C(=O)C(C#N)c1ccc(Cl)c(Cl)c1 (configuration not stated)	> 100 µM (inactive)	–	> 100 µM (inactive)	64.3 µM (inactive)	> 100 µM (inactive)	> 100 µM (inactive)	> 100 µM (inactive)	> 100 µM (inactive)	–	–	> 100 µM (inactive)	> 100 µM (inactive)	–	> 100 µM (inactive)	> 100 µM (inactive)	> 100 µM (inactive)	> 100 µM (inactive)	–	–
NC(CCCCN/C=C1/N=C(c2ccccc2)OC1=O)C(=O)O (configuration not stated)	> 100 µM (inactive)	> 100 µM (inactive)	> 100 µM (inactive)	> 100 µM (inactive)	> 100 µM (inactive)	> 100 µM (inactive)	> 100 µM (inactive)	> 100 µM (inactive)	–	> 100 µM (inactive)	> 100 µM (inactive)	26.1 µM (inactive)	> 100 µM (inactive)	> 100 µM (inactive)	> 100 µM (inactive)	> 100 µM (inactive)	> 100 µM (inactive)	–	–
CC(C)c1cccc(C(C)C)c1NC(=O)C(=O)Cc1nc2ccc([N+](=O)[O-])cc2nc1O	> 10 µM (inactive)	70.1 µM (inactive)	61 µM (inactive)	44.2 µM (inactive)	31.9 µM (inactive)	50.6 µM (inactive)	39.2 µM (inactive)	–	–	64.3 µM (inactive)	–	6.35 µM (inactive)	–	> 100 µM (inactive)	–	> 100 µM (inactive)	53.6 µM (inactive)	–	–
CN(C)CCNC(=O)c1c2ccccc2cc2ccccc12	16.9 µM (inactive)	18.1 µM (inactive)	8 µM (inactive)	> 100 µM (inactive)	41.4 µM (inactive)	60.4 µM (inactive)	26.8 µM (inactive)	34.4 µM (inactive)	–	31 µM (inactive)	0.473 µM (active)	–	38.1 µM (inactive)	26.2 µM (inactive)	44.7 µM (inactive)	34.1 µM (inactive)	34.6 µM (inactive)	–	–
NNC(=O)C(=O)N/N=C(\CCC(=O)Nc1ccc(Cl)cc1)Cc1nc2ccccc2s1	21.8 µM (inactive)	28 µM (inactive)	28.9 µM (inactive)	27.4 µM (inactive)	30.9 µM (inactive)	45.5 µM (inactive)	28.1 µM (inactive)	34.6 µM (inactive)	–	–	11.9 µM (inactive)	15.5 µM (inactive)	> 100 µM (inactive)	11.9 µM (inactive)	25.3 µM (inactive)	44.7 µM (inactive)	45.4 µM (inactive)	–	–
O=C(N/C(=C\c1ccc([N+](=O)[O-])cc1)c1nc2c(O)nc(S)nc2[nH]1)c1ccccc1	> 100 µM (inactive)	–	> 100 µM (inactive)	> 100 µM (inactive)	> 100 µM (inactive)	43.7 µM (inactive)	–	> 100 µM (inactive)	–	99.5 µM (inactive)	> 100 µM (inactive)	57.1 µM (inactive)	> 100 µM (inactive)	30.8 µM (inactive)	> 100 µM (inactive)	> 100 µM (inactive)	> 100 µM (inactive)	–	–
c1ccc(C2=NN(c3ccccc3)C3(S2)SC(c2ccccc2)(c2ccccc2)c2ccccc23)cc1 (configuration not stated)	> 100 µM (inactive)	> 100 µM (inactive)	> 100 µM (inactive)	> 100 µM (inactive)	> 100 µM (inactive)	> 100 µM (inactive)	> 100 µM (inactive)	> 100 µM (inactive)	–	> 100 µM (inactive)	–	> 100 µM (inactive)	> 100 µM (inactive)	> 100 µM (inactive)	> 100 µM (inactive)	> 100 µM (inactive)	> 100 µM (inactive)	–	–
CC(=O)NNc1nc(C)c(C(=O)/C=C/c2ccccc2Cl)s1	> 100 µM (inactive)	> 100 µM (inactive)	> 100 µM (inactive)	> 100 µM (inactive)	> 100 µM (inactive)	> 100 µM (inactive)	–	> 100 µM (inactive)	–	–	–	43.5 µM (inactive)	> 100 µM (inactive)	> 100 µM (inactive)	> 100 µM (inactive)	> 100 µM (inactive)	> 100 µM (inactive)	–	–
O=c1c2ccccc2c(=O)n2n1-c1cccc(c1)CSSCc1cccc-2c1	> 10 µM (inactive)	> 10 µM (inactive)	> 10 µM (inactive)	> 10 µM (inactive)	> 10 µM (inactive)	5.9 µM (inactive)	> 10 µM (inactive)	> 10 µM (inactive)	–	> 10 µM (inactive)	> 10 µM (inactive)	> 10 µM (inactive)	> 10 µM (inactive)	> 10 µM (inactive)	> 10 µM (inactive)	> 10 µM (inactive)	> 10 µM (inactive)	–	–
O=C(CC1C(=O)Nc2ccccc2[S+]1[O-])Nc1ccc(Cl)cc1 (configuration not stated)	–	> 100 µM (inactive)	> 100 µM (inactive)	–	35.2 µM (inactive)	29 µM (inactive)	–	72.4 µM (inactive)	–	49 µM (inactive)	32.4 µM (inactive)	> 100 µM (inactive)	32.7 µM (inactive)	35.1 µM (inactive)	57.5 µM (inactive)	98.2 µM (inactive)	> 100 µM (inactive)	–	–
Cc1cc(S(=O)(=O)Nc2nc3ccccc3c(=O)n2N)c(S)cc1Cl	29.6 µM (inactive)	33.4 µM (inactive)	29.3 µM (inactive)	43.6 µM (inactive)	31.8 µM (inactive)	–	32 µM (inactive)	44.5 µM (inactive)	47.6 µM (inactive)	29.6 µM (inactive)	–	–	30.2 µM (inactive)	–	–	23.1 µM (inactive)	31.1 µM (inactive)	69.3 µM (inactive)	32.9 µM (inactive)
